Results taken from PubChem BioAssay AID192 (DTP/NCI, 2004).
Several values for one entry are separate records, joined by “and”; a condition that tells them apart may be missing. Equal values may be shown once. Toxic doses and inconclusive results are not listed.

System: BDF1 mice, B16 melanoma ip, median survival T/C
Test: NCI In Vivo Anticancer Drug Screen. Data for tumor model B16 Melanoma (intraperitoneal) in B6D2F1 (BDF1) mice
Conditions: endpoint: median survival time, higher = longer survival
How it was run: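 Compounds were tested in mice carrying transplantable tumors. Survival or tumor size was recorded, and each value is the treated-group measurement (T) divided by that of the vehicle-treated control group (C).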

[1] = dose: 1.0 mg/kg/injection, schedule: Q01DX009 (ip), vehicle: saline
[2] = dose: 25.0 mg/kg/injection, schedule: Q01DX009 (ip), vehicle: saline
[3] = dose: 50.0 mg/kg/injection, schedule: Q01DX009 (ip), vehicle: saline
[4] = dose: 100.0 mg/kg/injection, schedule: Q01DX009 (ip), vehicle: saline
[5] = dose: 12.5 mg/kg/injection, schedule: Q01DX009 (ip), vehicle: saline with Tween-80
[6] = dose: 25.0 mg/kg/injection, schedule: Q01DX009 (ip), vehicle: saline with Tween-80
[7] = dose: 50.0 mg/kg/injection, schedule: Q01DX009 (ip), vehicle: saline with Tween-80
[8] = dose: 100.0 mg/kg/injection, schedule: Q04DX003 (ip), vehicle: Klucel (hydroxypropylcellulose) (HPC)
[9] = dose: 200.0 mg/kg/injection, schedule: Q04DX003 (ip), vehicle: Klucel (hydroxypropylcellulose) (HPC)
[10] = dose: 6.25 mg/kg/injection, schedule: Q01DX009 (ip), vehicle: Klucel (hydroxypropylcellulose) (HPC)
[11] = dose: 12.5 mg/kg/injection, schedule: Q01DX009 (ip), vehicle: Klucel (hydroxypropylcellulose) (HPC)
[12] = dose: 50.0 mg/kg/injection, schedule: Q01DX009 (ip), vehicle: Klucel (hydroxypropylcellulose) (HPC)
[13] = dose: 100.0 mg/kg/injection, schedule: Q01DX009 (ip), vehicle: Klucel (hydroxypropylcellulose) (HPC)
[14] = dose: 100.0 mg/kg/injection, schedule: Q01DX009 (ip), vehicle: saline with Tween-80
[15] = dose: 25.0 mg/kg/injection, schedule: Q01DX009 (ip), vehicle: Klucel (hydroxypropylcellulose) (HPC)

## FC(F)(F)c1ccc2c(c1)N(CCCN1CC[N+]3(CCOCC3)CC1)c1ccccc1S2
dose: 0.5 mg/kg/injection, schedule: Q01DX009 (ip), vehicle: saline
  T/C: 105 % of control
[1]
  T/C: 94 % of control and 102 % of control
dose: 2.0 mg/kg/injection, schedule: Q01DX009 (ip), vehicle: saline
  T/C: 100 % of control and 105 % of control
dose: 4.0 mg/kg/injection, schedule: Q01DX009 (ip), vehicle: saline
  T/C: 94 % of control

## CNC1C(O)C(NC)C2OC3(O)C(=O)CC(C)OC3OC2C1O (configuration not stated)
[2]
  T/C: 95 % of control
[3]
  T/C: 100 % of control
[4]
  T/C: 109 % of control

## CCc1nc2cc(C)c(C)cc2[nH]1
[5]
  T/C: 106 % of control
[6]
  T/C: 104 % of control
[7]
  T/C: 104 % of control

## CCOC1=C(Br)C=CN(S(=O)(=O)c2ccc(C)cc2)c2ccc(OC)cc21
[8]
  T/C: 96 % of control
[9]
  T/C: 90 % of control
dose: 400.0 mg/kg/injection, schedule: Q04DX003 (ip), vehicle: Klucel (hydroxypropylcellulose) (HPC)
  T/C: 91 % of control

## COc1c(I)c2c(c(OC)c1OC)-c1ccc(OC)c(=O)cc1C(NC(C)=O)CC2 (configuration not stated)
dose: 0.78 mg/kg/injection, schedule: Q01DX009 (ip), vehicle: Klucel (hydroxypropylcellulose) (HPC)
  T/C: 104 % of control
dose: 1.56 mg/kg/injection, schedule: Q01DX009 (ip), vehicle: Klucel (hydroxypropylcellulose) (HPC)
  T/C: 104 % of control and 124 % of control
dose: 3.12 mg/kg/injection, schedule: Q01DX009 (ip), vehicle: Klucel (hydroxypropylcellulose) (HPC)
  T/C: 112 % of control
[10]
  T/C: 121 % of control
[11]
  T/C: 112 % of control

## C=CCc1cn(C2CC(O)C(CO)O2)c(=O)[nH]c1=O (configuration not stated)
dose: 12.5 mg/kg/injection, schedule: Q01DX009 (ip), vehicle: saline
  T/C: 104 % of control
[2]
  T/C: 105 % of control
[3]
  T/C: 104 % of control
[4]
  T/C: 105 % of control
dose: 200.0 mg/kg/injection, schedule: Q01DX009 (ip), vehicle: saline
  T/C: 105 % of control
dose: 400.0 mg/kg/injection, schedule: Q01DX009 (ip), vehicle: saline
  T/C: 107 % of control

## [Cl][Pt+2][Cl].[NH-]c1cc2ccccc2cc1[NH-]
dose: 20.0 mg/kg/injection, schedule: Q01DX009 (ip), vehicle: saline with Tween-80
  T/C: 113 % of control
dose: 40.0 mg/kg/injection, schedule: Q01DX009 (ip), vehicle: saline with Tween-80
  T/C: 122 % of control
dose: 80.0 mg/kg/injection, schedule: Q01DX009 (ip), vehicle: saline with Tween-80
  T/C: 120 % of control
dose: 160.0 mg/kg/injection, schedule: Q01DX009 (ip), vehicle: saline with Tween-80
  T/C: 87 % of control
dose: 320.0 mg/kg/injection, schedule: Q01DX009 (ip), vehicle: saline with Tween-80
  T/C: 118 % of control

## Cc1ccccc1N=Nc1c(N)ccc2ccccc12
[12]
  T/C: 110 % of control
[13]
  T/C: 106 % of control
dose: 200.0 mg/kg/injection, schedule: Q01DX009 (ip), vehicle: Klucel (hydroxypropylcellulose) (HPC)
  T/C: 106 % of control

## CC[C@@]1(O)C(=O)OCc2c1cc1n(c2=O)Cc2cc3ccccc3nc2-1
dose: 0.39 mg/kg/injection, schedule: Q01DX009 (ip), vehicle: other
  T/C: 151 % of control
dose: 0.79 mg/kg/injection, schedule: Q01DX009 (ip), vehicle: other
  T/C: 189 % of control

## BrC1(Br)CC1(c1ccccc1)c1ccccc1
dose: 50.0 mg/kg/injection, schedule: Q04DX003 (ip), vehicle: Klucel (hydroxypropylcellulose) (HPC)
  T/C: 111 % of control
[8]
  T/C: 105 % of control
[9]
  T/C: 102 % of control

## c1ccc([P+](c2ccccc2)(c2ccccc2)c2ccccc2)cc1
dose: 0.13 mg/kg/injection, schedule: Q01DX009 (ip), vehicle: saline
  T/C: 102 % of control
dose: 0.2 mg/kg/injection, schedule: Q01DX009 (ip), vehicle: saline
  T/C: 102 % of control
dose: 0.3 mg/kg/injection, schedule: Q01DX009 (ip), vehicle: saline
  T/C: 102 % of control
dose: 0.44 mg/kg/injection, schedule: Q01DX009 (ip), vehicle: saline
  T/C: 113 % of control
dose: 0.63 mg/kg/injection, schedule: Q04DX003 (ip), vehicle: saline
  T/C: 100 % of control
dose: 0.66 mg/kg/injection, schedule: Q01DX009 (ip), vehicle: saline
  T/C: 110 % of control
[1]
  T/C: 113 % of control
dose: 1.25 mg/kg/injection, schedule: Q01DX009 (ip), vehicle: saline with Tween-80
  T/C: 97 % of control
dose: 1.25 mg/kg/injection, schedule: Q04DX003 (ip), vehicle: saline
  T/C: 100 % of control
dose: 1.5 mg/kg/injection, schedule: Q01DX009 (ip), vehicle: saline
  T/C: 113 % of control
dose: 2.5 mg/kg/injection, schedule: Q01DX009 (ip), vehicle: saline with Tween-80
  T/C: 104 % of control
dose: 2.5 mg/kg/injection, schedule: Q04DX003 (ip), vehicle: saline
  T/C: 102 % of control
dose: 5.0 mg/kg/injection, schedule: Q01DX009 (ip), vehicle: saline with Tween-80
  T/C: 111 % of control
dose: 5.0 mg/kg/injection, schedule: Q04DX003 (ip), vehicle: saline
  T/C: 89 % of control

## O=C(Nc1ccc2c(c1)OCO2)O/N=C1\C(=O)Nc2ccccc21
dose: 16.5 mg/kg/injection, schedule: Q04DX003 (ip), vehicle: saline with Tween-80
  T/C: 100 % of control
[6]
  T/C: 109 % of control
dose: 25.0 mg/kg/injection, schedule: Q04DX003 (ip), vehicle: saline with Tween-80
  T/C: 100 % of control
dose: 25.0 mg/kg/injection, schedule: Q04DX003 (ip), vehicle: saline
  T/C: 153 % of control
dose: 37.5 mg/kg/injection, schedule: Q04DX003 (ip), vehicle: saline with Tween-80
  T/C: 95 % of control
[7]
  T/C: 104 % of control
[14]
  T/C: 100 % of control

## CCCn1cnc2c(=S)nc[nH]c21
[5]
  T/C: 120 % of control
[6]
  T/C: 116 % of control
[7]
  T/C: 106 % of control

## CC(=O)OCc1cc(=O)n(C)c2c3c4c(cc12)c(C)cc(=O)n4CO3
[10]
  T/C: 122 % of control
[11]
  T/C: 120 % of control
[15]
  T/C: 121 % of control

## CC1CCC2(OC1)OC1CC3C4CCC5CC(O)CCC5(C)C4CCC3(C)C1C2C (configuration not stated)
dose: 10.0 mg/kg/injection, schedule: Q01DX009 (ip), vehicle: Klucel (hydroxypropylcellulose) (HPC)
  T/C: 99 % of control
dose: 20.0 mg/kg/injection, schedule: Q01DX009 (ip), vehicle: Klucel (hydroxypropylcellulose) (HPC)
  T/C: 97 % of control
dose: 40.0 mg/kg/injection, schedule: Q01DX009 (ip), vehicle: Klucel (hydroxypropylcellulose) (HPC)
  T/C: 95 % of control

## O=[N+]([O-])/C=C/c1ccc2ccccc2c1
[12]
  T/C: 95 % of control
[13]
  T/C: 107 % of control

## C=C(C)[C@@H]1CC[C@@H]2C(=CC[C@]3(C)C([C@H](C)CC/C=C(/C)C(=O)O)CC[C@@]23C)[C@@]1(C)CCC(=O)O (some centres not stated)
dose: 22.5 mg/kg/injection, schedule: Q01DX009 (ip), vehicle: saline + alcohol
  T/C: 98 % of control
dose: 45.0 mg/kg/injection, schedule: Q01DX009 (ip), vehicle: saline + alcohol
  T/C: 98 % of control

## O=C(/C(=C/c1ccccc1)CBr)c1ccccc1
dose: 0.13 mg/kg/injection, schedule: Q01DX009 (ip), vehicle: saline with Tween-80
  T/C: 89 % of control
dose: 0.25 mg/kg/injection, schedule: Q01DX009 (ip), vehicle: saline with Tween-80
  T/C: 100 % of control
dose: 0.5 mg/kg/injection, schedule: Q01DX009 (ip), vehicle: saline with Tween-80
  T/C: 86 % of control and 100 % of control
dose: 1.0 mg/kg/injection, schedule: Q01DX009 (ip), vehicle: saline with Tween-80
  T/C: 89 % of control and 92 % of control
dose: 2.0 mg/kg/injection, schedule: Q01DX009 (ip), vehicle: saline with Tween-80
  T/C: 89 % of control
dose: 4.0 mg/kg/injection, schedule: Q01DX009 (ip), vehicle: saline with Tween-80
  T/C: 89 % of control

## CS(=O)(=O)c1cc(C(F)(F)F)cc([N+](=O)[O-])c1Cl
[6]
  T/C: 89 % of control
[7]
  T/C: 95 % of control
[14]
  T/C: 95 % of control

## c1ccc(-c2nc3ccc4ccccc4c3nc2-c2ccccc2)cc1
[14]
  T/C: 100 % of control
dose: 200.0 mg/kg/injection, schedule: Q01DX009 (ip), vehicle: saline with Tween-80
  T/C: 118 % of control
dose: 400.0 mg/kg/injection, schedule: Q01DX009 (ip), vehicle: saline with Tween-80
  T/C: 95 % of control

## OC(CCN1CCCC1)(c1ccccc1)C1CCCCC1 (configuration not stated)
[10]
  T/C: 101 % of control
[15]
  T/C: 98 % of control
[12]
  T/C: 93 % of control
[13]
  T/C: 87 % of control
